# Measurements: PMC9071123 (PLoS Neglected Tropical Diseases, 2022)
# pEC50: −log10 of the molar value. “And” between values parts separate entries of the source, which are not always exact repeats. Equal values may be shown once. Where a name gives a salt, the structure may show the parent alone. Read-outs that look alike come from different tables or passages of the source.
# Key:
# [1] = test system: VSV-delG-Rluc-SARS-CoV-2-S pseudovirus; type: cell-based; conditions: 10 μM
# [2] = test system: SARS-CoV-2 S-mediated cell-cell fusion; type: cell-based
# in vitro [3] = conditions: African green monkey
# in vitro [4] = conditions: human
# Caco2 cells = conditions: human, 36 h
# Vero E6 cells [5] = conditions: African green monkey, 36 h
# [6] = test system: Renilla luciferase (Rluc) replicon of SARS-CoV-2; type: cell-based
# SARS-CoV-2 [7] = experiment: microbe, parasite or virus in culture; type: cell-based, SARS-CoV-2 (WIV-04); conditions: Severe acute respiratory syndrome coronavirus 2, Caco-2, 36 h
# SARS-CoV-2 [8] = experiment: microbe, parasite or virus in culture; type: cell-based, SARS-CoV-2 (WIV-04); conditions: for pEC50: Severe acute respiratory syndrome coronavirus 2, Vero C1008, 36 h
# SARS-CoV-2 [9] = experiment: Virus attachment assay in Vero E6 cells; conditions: 10 μM, Vero E6, 4°C 1 h
# Method: After synchronized adsorption for 1 h, the unbound SARS-CoV-2 virions were removed by PBS washing, and the relative levels of bound SARS-CoV-2 virions were measured by qRT-PCR assay.
# SARS-CoV-2 [10] = conditions: previous study ref 19; cited from earlier work
# [11] = Cytotoxicity CCK8 assay, Vero E6; conditions: African green monkey, Vero E6 cells
# Vero E6 cells [12] = experiment: Cytotoxicity CCK8 assay, Vero E6
smiles,measurement,setting,value
COc1cc2c3cc1Oc1c(OC)c(OC)cc4c1[C@@H](Cc1ccc(O)c(c1)Oc1ccc(cc1)C[C@@H]3N(C)CC2)N(C)CC4 [Berbamine hydrochloride],reduction of intracellular luciferase activity compared to DMSO treatment,"[1]; Vero E6, 24 h post pseudovirus infection",about 10 fold
same,"intracellular luciferase activity, mean","[1]; Vero E6, 24 h post-infection (DMSO mean 389736)",47678.5
same,inhibition of S-mediated cell-cell fusion (syncytial phenotype),[2],little or no such syncytial phenotype was observed
same,CC50 at 36 h,in vitro [3],66.9 µM
same,CC50 at 36 h,in vitro [4],31.9 µM
same,"%inhibiton, mean (CC50 data, CCK-8)",Caco2 cells; 0.3125 μM,-11.728%
same,"%inhibiton, mean (CC50 data, CCK-8)",Caco2 cells; 0.625 μM,-16.6504%
same,"%inhibiton, mean (CC50 data, CCK-8)",Caco2 cells; 1.25 μM,-15.2704%
same,"%inhibiton, mean (CC50 data, CCK-8)",Caco2 cells; 2.5 μM,-14.7661%
same,"%inhibiton, mean (CC50 data, CCK-8)",Caco2 cells; 5 μM,-19.7288%
same,"%inhibiton, mean (CC50 data, CCK-8)",Caco2 cells; 10 μM,-18.7648%
same,"%inhibiton, mean (CC50 data, CCK-8)",Caco2 cells; 20 μM,-1.748%
same,"%inhibiton, mean (CC50 data, CCK-8)",Caco2 cells; 40 μM,50.1206%
same,"%inhibiton, mean (CC50 data, CCK-8)",Caco2 cells; 80 μM,67.6973%
same,"%inhibiton, mean (CC50 data, CCK-8)",Vero E6 cells [5]; 0.3125 μM,-6.065%
same,"%inhibiton, mean (CC50 data, CCK-8)",Vero E6 cells [5]; 0.625 μM,-4.636%
same,"%inhibiton, mean (CC50 data, CCK-8)",Vero E6 cells [5]; 1.25 μM,-0.8416%
same,"%inhibiton, mean (CC50 data, CCK-8)",Vero E6 cells [5]; 2.5 μM,-0.7911%
same,"%inhibiton, mean (CC50 data, CCK-8)",Vero E6 cells [5]; 5 μM,-7.026%
same,"%inhibiton, mean (CC50 data, CCK-8)",Vero E6 cells [5]; 10 μM,-8.006%
same,"%inhibiton, mean (CC50 data, CCK-8)",Vero E6 cells [5]; 20 μM,1.038%
same,"%inhibiton, mean (CC50 data, CCK-8)",Vero E6 cells [5]; 40 μM,73.2674%
same,"%inhibiton, mean (CC50 data, CCK-8)",Vero E6 cells [5]; 80 μM,78.8829%
same,"replicon luciferase signal, drug treatment versus DMSO",[6],no significant difference
same,pEC50,SARS-CoV-2 [7],5.72
same,pEC50,SARS-CoV-2 [8],5.76
same,cell-attached viral RNA copies versus DMSO control group,SARS-CoV-2 [9],no significant difference
same,"Viral copies (Normalized to DMSO), mean",SARS-CoV-2 [9]; MOI 0.05 (DMSO = 100),94.7359
"COc1ccc2cc1Oc1ccc(cc1)C[C@H]1c3c(cc4c(c3Oc3cc5c(cc3OC)CCN(C)[C@@H]5C2)OCO4)CCN1C [Cepharanthine, cepharanthine]",inhibition of S-mediated cell-cell fusion (syncytial phenotype),[2],apparent inhibitory effects
same,inhibition of the SARS-CoV-2 induced cytopathic effect,SARS-CoV-2 [10],efficiently inhibit
same,CC50 at 36 h,[11],> 20 µM
same,"%inhibiton, mean (CC50 data, CCK-8)","Vero E6 cells [12]; Vero-E6, 0.078125 μM",9.153%
same,"%inhibiton, mean (CC50 data, CCK-8)","Vero E6 cells [12]; Vero-E6, 0.15625 μM",9.469%
same,"%inhibiton, mean (CC50 data, CCK-8)","Vero E6 cells [12]; Vero-E6, 0.3125 μM",5.3801%
same,"%inhibiton, mean (CC50 data, CCK-8)","Vero E6 cells [12]; Vero-E6, 0.625 μM",1.292%
same,"%inhibiton, mean (CC50 data, CCK-8)","Vero E6 cells [12]; Vero-E6, 1.25 μM",5.646%
same,"%inhibiton, mean (CC50 data, CCK-8)","Vero E6 cells [12]; Vero-E6, 2.5 μM",5.87%
same,"%inhibiton, mean (CC50 data, CCK-8)","Vero E6 cells [12]; Vero-E6, 5 μM",7.302%
same,"%inhibiton, mean (CC50 data, CCK-8)","Vero E6 cells [12]; Vero-E6, 10 μM",3.537%
same,"%inhibiton, mean (CC50 data, CCK-8)","Vero E6 cells [12]; Vero-E6, 20 μM",2.215%
same,"%inhibiton, mean (viral RNA genomic copy number)",SARS-CoV-2 [8],99.5371% and 98.6265% and 86.3235% and 71.2349% and 67.6803%
same,inhibition against SARS-CoV-2 infection,SARS-CoV-2 [8],dose-dependent inhibition
same,selective index (SI),SARS-CoV-2 [8],>8.93
same,pEC50,SARS-CoV-2 [8],5.65
"COc1ccc2cc1Oc1ccc(cc1)C[C@H]1c3cc(c(OC)cc3CCN1C)Oc1c(O)c(OC)cc3c1[C@H](C2)N(C)CC3 [Fangchinoline, fangchinoline]",inhibition of S-mediated cell-cell fusion (syncytial phenotype),[2],apparent inhibitory effects
same,inhibition of the SARS-CoV-2 induced cytopathic effect,SARS-CoV-2 [10],efficiently inhibit
same,CC50 at 36 h,[11],> 20 µM
same,"%inhibiton, mean (CC50 data, CCK-8)","Vero E6 cells [12]; Vero-E6, 0.078125 μM",7.966%
same,"%inhibiton, mean (CC50 data, CCK-8)","Vero E6 cells [12]; Vero-E6, 0.15625 μM",4.163%
same,"%inhibiton, mean (CC50 data, CCK-8)","Vero E6 cells [12]; Vero-E6, 0.3125 μM",4.478%
same,"%inhibiton, mean (CC50 data, CCK-8)","Vero E6 cells [12]; Vero-E6, 0.625 μM",8.257%
same,"%inhibiton, mean (CC50 data, CCK-8)","Vero E6 cells [12]; Vero-E6, 1.25 μM",10.5597%
same,"%inhibiton, mean (CC50 data, CCK-8)","Vero E6 cells [12]; Vero-E6, 2.5 μM",7.088%
same,"%inhibiton, mean (CC50 data, CCK-8)","Vero E6 cells [12]; Vero-E6, 5 μM",14.0504%
same,"%inhibiton, mean (CC50 data, CCK-8)","Vero E6 cells [12]; Vero-E6, 10 μM",8.415%
same,"%inhibiton, mean (CC50 data, CCK-8)","Vero E6 cells [12]; Vero-E6, 20 μM",0.3804%
same,inhibition against SARS-CoV-2 infection,SARS-CoV-2 [8],dose-dependent inhibition
same,selective index (SI),SARS-CoV-2 [8],>9.57
same,pEC50,SARS-CoV-2 [8],5.68
"COc1ccc2cc1Oc1ccc(cc1)C[C@H]1c3cc(c(OC)cc3CCN1C)Oc1c(OC)c(OC)cc3c1[C@H](C2)N(C)CC3 [Tetrandrine, tetrandrine]",inhibition of S-mediated cell-cell fusion (syncytial phenotype),[2],apparent inhibitory effects
same,inhibition of the SARS-CoV-2 induced cytopathic effect,SARS-CoV-2 [10],efficiently inhibit
same,CC50 at 36 h,[11],> 20 µM
same,"%inhibiton, mean (CC50 data, CCK-8)","Vero E6 cells [12]; Vero-E6, 0.078125 μM",5.4651%
same,"%inhibiton, mean (CC50 data, CCK-8)","Vero E6 cells [12]; Vero-E6, 0.15625 μM",9.075%
same,"%inhibiton, mean (CC50 data, CCK-8)","Vero E6 cells [12]; Vero-E6, 0.3125 μM",8.155%
same,"%inhibiton, mean (CC50 data, CCK-8)","Vero E6 cells [12]; Vero-E6, 0.625 μM",11.3125%
same,"%inhibiton, mean (CC50 data, CCK-8)","Vero E6 cells [12]; Vero-E6, 1.25 μM",11.2558%
same,"%inhibiton, mean (CC50 data, CCK-8)","Vero E6 cells [12]; Vero-E6, 2.5 μM",4.063%
same,"%inhibiton, mean (CC50 data, CCK-8)","Vero E6 cells [12]; Vero-E6, 5 μM",5.628%
same,"%inhibiton, mean (CC50 data, CCK-8)","Vero E6 cells [12]; Vero-E6, 10 μM",-1.303%
same,"%inhibiton, mean (CC50 data, CCK-8)","Vero E6 cells [12]; Vero-E6, 20 μM",-2.23%
same,inhibition against SARS-CoV-2 infection,SARS-CoV-2 [8],dose-dependent inhibition
same,selective index (SI),SARS-CoV-2 [8],>6.92
same,pEC50,SARS-CoV-2 [8],5.54
COc1ccc(C[C@@H]2c3cc(Oc4cc(C[C@@H]5c6cc(O)c(OC)cc6CCN5C)ccc4O)c(OC)cc3CCN2C)cc1 [isoliensinine],inhibition of S-mediated cell-cell fusion (syncytial phenotype),[2],apparent inhibitory effects
same,inhibition of the SARS-CoV-2 induced cytopathic effect,SARS-CoV-2 [10],efficiently inhibit
COc1cc2c(cc1OC)[C@@H](Cc1ccc(O)c(Oc3cc4c(cc3OC)CCN(C)[C@@H]4Cc3ccc(O)cc3)c1)N(C)CC2 [liensinine],inhibition of S-mediated cell-cell fusion (syncytial phenotype),[2],apparent inhibitory effects
same,inhibition of the SARS-CoV-2 induced cytopathic effect,SARS-CoV-2 [10],efficiently inhibit
